The compounds below were run on tau protein (assay: Tau protein in vitro degradation assay (Western blot, Tau-13 antibody)). Conditions: SK-N-SH cells; 72 hours of incubation; tested at 300 nM, 100 nM, 33 nM and 11 nM; Western blot, Tau-13 antibody.
Type: cell-based, human
Summary of the method: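 SK-N-SH cells, seeded ≥18 h beforehand, were incubated 72 h with tau PROTACs at 1000, 300 and 100 nM or at 300, 100, 33 and 11 nM. Lysates in protease-inhibitor buffer were resolved by SDS-PAGE; tau quantified by Western blot with Tau-13 antibody recognising all human tau forms.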

Row | SMILES | Degradation activity* (highest amount of degradation observed at any dosage; tau protein remaining)
1 | O=C1CCC(N2C(=O)c3ccc(N4CCN(CCCO[C@H]5C[C@@H](Oc6ccc(-c7ccc8c(c7)[nH]c7ccncc78)cn6)C5)CC4)cc3C2=O)C(=O)N1 (stereo partly shown) [Compound 53, 5-(4-(3-((1s,3s)-3-((5-(5H-pyrido[4,3-b]indol-7-yl)pyridin-2-yl)oxy)cyclobutoxy)propyl)piperazin-1-yl)-2-(2,6-dioxopiperidin-3-yl)isoindoline-1,3-dione] | C (>80% tau protein remaining after 72 hours of incubation with the test compound)
2 | O=C1CCC(N2C(=O)c3ccc(OCCCCCN4CCN(CCCc5ccc(-c6ccc7c(c6)[nH]c6ccncc67)cn5)CC4)cc3C2=O)C(=O)N1 (stereo not shown) [Compound 54, 5-((5-(4-(3-(5-(5H-pyrido[4,3-b]indol-7-yl)pyridin-2-yl)propyl)piperazin-1-yl)pentyl)oxy)-2-(2,6-dioxopiperidin-3-yl)isoindoline-1,3-dione] | C (>80% tau protein remaining after 72 hours of incubation with the test compound)
3 | O=C1CCC(N2C(=O)c3ccc(OCCCc4ccc(N5CCN(CCCc6ccc(-c7ccc8c(c7)[nH]c7ccncc78)cn6)CC5)nc4)cc3C2=O)C(=O)N1 (stereo not shown) [Compound 55, 5-(3-(6-(4-(3-(5-(5H-pyrido[4,3-b]indol-7-yl)pyridin-2-yl)propyl)piperazin-1-yl)pyridin-3-yl)propoxy)-2-(2,6-dioxopiperidin-3-yl)isoindoline-1,3-dione] | C (>80% tau protein remaining after 72 hours of incubation with the test compound)
4 | O=C1CCC(N2C(=O)c3ccc(OCCCCCN4CCN(CCO[C@H]5C[C@@H](Oc6ccc(-c7ccc8c(c7)[nH]c7ccncc78)cn6)C5)CC4)cc3C2=O)C(=O)N1 (stereo partly shown) [Compound 56, 5-((5-(4-(2-((1 s,3 s)-3-((5-(5H-pyrido[4,3-b]indol-7-yl)pyridin-2-yl)oxy)cyclobutoxy)ethyl)piperazin-1-yl)pentyl)oxy)-2-(2,6-dioxopiperidin-3-yl)isoindoline-1,3-dione] | C (>80% tau protein remaining after 72 hours of incubation with the test compound)
5 | O=C1CCC(N2C(=O)c3ccc(OCCOCCOCCOCCOCCN4CCC(c5ccc6c(c5)[nH]c5ccncc56)CC4)cc3C2=O)C(=O)N1 (stereo not shown) [Compound 57, 5-((14-(4-(5H-pyrido[4,3-b]indol-7-yl)piperidin-1-yl)-3,6,9,12-tetraoxatetradecyl)oxy)-2-(2,6-dioxopiperidin-3-yl)isoindoline-1,3-dione] | C (>80% tau protein remaining after 72 hours of incubation with the test compound)
6 | O=C1CCC(N2C(=O)c3ccc(OCCCCCOCCN4CCN(CCCc5ccc(-c6ccc7c(c6)[nH]c6ccncc67)cn5)CC4)cc3C2=O)C(=O)N1 (stereo not shown) [Compound 58, 5-((5-(2-(4-(3-(5-(5H-pyrido[4,3-b]indol-7-yl)pyridin-2-yl)propyl)piperazin-1-yl)ethoxy)pentyl)oxy)-2-(2,6-dioxopiperidin-3-yl)isoindoline-1,3-dione] | C (>80% tau protein remaining after 72 hours of incubation with the test compound)
7 | O=C1CCC(N2C(=O)c3ccc(OCCCCCN4CCN(CCO[C@H]5C[C@H](Oc6ccc(-c7ccc8c(c7)[nH]c7ccncc78)cn6)C5)CC4)cc3C2=O)C(=O)N1 (stereo partly shown) [Compound 59, 5-((5-(4-(2-((1r,3r)-3-((5-(5H-pyrido[4,3-b]indol-7-yl)pyridin-2-yl)oxy)cyclobutoxy)ethyl)piperazin-1-yl)pentyl)oxy)-2-(2,6-dioxopiperidin-3-yl)isoindoline-1,3-dione] | C (>80% tau protein remaining after 72 hours of incubation with the test compound)
8 | O=C1CCC(N2C(=O)c3ccc(N4CCN(CCCO[C@H]5C[C@H](Oc6ccc(-c7ccc8c(c7)[nH]c7ccncc78)cn6)C5)CC4)cc3C2=O)C(=O)N1 (stereo partly shown) [Compound 60, 5-(4-(3-((1r,3r)-3-((5-(5H-pyrido[4,3-b]indol-7-yl)pyridin-2-yl)oxy)cyclobutoxy)propyl)piperazin-1-yl)-2-(2,6-dioxopiperidin-3-yl)isoindoline-1,3-dione] | C (>80% tau protein remaining after 72 hours of incubation with the test compound)
9 | O=C1CCC(N2C(=O)c3ccc(OCCCCCN4CCN(CCCc5ccc(-c6ccc7c8cnccc8n(CC(F)(F)F)c7c6)cn5)CC4)cc3C2=O)C(=O)N1 (stereo not shown) [Compound 61, 2-(2,6-dioxopiperidin-3-yl)-5-((5-(4-(3-(5-(5-(2,2,2-trifluoroethyl)-5H-pyrido[4,3-b]indol-7-yl)pyridin-2-yl)propyl)piperazin-1-yl)pentyl)oxy)isoindoline-1,3-dione] | C (>80% tau protein remaining after 72 hours of incubation with the test compound)
10 | Cn1c2ccncc2c2ccc(-c3ccc(CCCN4CCN(CCCCCOc5ccc6c(c5)CN(C5CCC(=O)NC5=O)C6=O)CC4)nc3)cc21 (stereo not shown) [Compound 62, 3-(5-((5-(4-(3-(5-(5-methyl-5H-pyrido[4,3-b]indol-7-yl)pyridin-2-yl)propyl)piperazin-1-yl)pentyl)oxy)-1-oxoisoindolin-2-yl)piperidine-2,6-dione] | C (>80% tau protein remaining after 72 hours of incubation with the test compound)
11 | Cn1c2ccncc2c2ccc(-c3cnc(CCCN4CCN(CCCCCOc5ccc6c(c5)C(=O)N(C5CCC(=O)NC5=O)C6=O)CC4)c(C(F)(F)F)c3)cc21 (stereo not shown) [Compound 63, 2-(2,6-dioxopiperidin-3-yl)-5-((5-(4-(3-(5-(5-methyl-5H-pyrido[4,3-b]indol-7-yl)-3-(trifluoromethyl)pyridin-2-yl)propyl)piperazin-1-yl)pentyl)oxy)isoindoline-1,3-dione] | C (>80% tau protein remaining after 72 hours of incubation with the test compound)
12 | O=C1CCC(N2C(=O)c3ccc(N4CCN(CCCc5ccc(O[C@H]6C[C@H](Oc7ccc(-c8ccc9c(c8)[nH]c8ccncc89)cn7)C6)cn5)CC4)cc3C2=O)C(=O)N1 (stereo partly shown) [Compound 64, 5-(4-(3-(5-((1r,3r)-3-((5-(5H-pyrido[4,3-b]indol-7-yl)pyridin-2-yl)oxy)cyclobutoxy)pyridin-2-yl)propyl)piperazin-1-yl)-2-(2,6-dioxopiperidin-3-yl)isoindoline-1,3-dione] | C (>80% tau protein remaining after 72 hours of incubation with the test compound)
13 | O=C1CCC(N2C(=O)c3ccc(OCCCCCN4CCC(O[C@H]5C[C@H](Oc6ccc(-c7ccc8c(c7)[nH]c7ccncc78)cn6)C5)CC4)cc3C2=O)C(=O)N1 (stereo partly shown) [Compound 65, 5-((5-(4-((1r,3r)-3-((5-(5H-pyrido[4,3-b]indol-7-yl)pyridin-2-yl)oxy)cyclobutoxy)piperidin-1-yl)pentyl)oxy)-2-(2,6-dioxopiperidin-3-yl)isoindoline-1,3-dione] | C (>80% tau protein remaining after 72 hours of incubation with the test compound)

From patent publication US11458123B2 (Arvinas, Inc., priority 2016, dated 2022)
